Reference: PubChem BioAssay (NCI)
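Assay format: 96-well plates, 48-hour exposure. Here, GI50 denotes the concentration required for 50% inhibition of growth. Definition used: TGI = concentration required for complete inhibition of growth.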

Columns and labels:
Test in all cases: DTP human tumour cell line panel, 48 h
HL-60(TB) leukemia = test system: HL-60(TB) leukemia
CCRF-CEM leukemia = test system: CCRF-CEM leukemia
UACC-257 melanoma = test system: UACC-257 melanoma
A498 renal = test system: A498 renal
SK-OV-3 ovarian = test system: SK-OV-3 ovarian
OVCAR-8 ovarian = test system: OVCAR-8 ovarian
SK-MEL-2 melanoma = test system: SK-MEL-2 melanoma
OVCAR-5 ovarian = test system: OVCAR-5 ovarian
SR leukemia = test system: SR leukemia
BT-549 breast = test system: BT-549 breast
HT29 colon = test system: HT29 colon
HOP-92 NSCLC = test system: HOP-92 NSCLC
HCC-2998 colon = test system: HCC-2998 colon
MDA-MB-231 breast = test system: MDA-MB-231 breast
NCI-H522 lung = test system: NCI-H522 lung
UO-31 renal = test system: UO-31 renal
SF-268 CNS = test system: SF-268 CNS
NCI-H226 lung = test system: NCI-H226 lung
SK-MEL-5 melanoma = test system: SK-MEL-5 melanoma
SN12C renal = test system: SN12C renal
RPMI-8226 leukemia = test system: RPMI-8226 leukemia
UACC-62 melanoma = test system: UACC-62 melanoma
MDA-MB-435 = test system: MDA-MB-435
CAKI-1 renal = test system: CAKI-1 renal
A549 NSCLC = test system: A549 NSCLC
OVCAR-3 ovarian = test system: OVCAR-3 ovarian
OVCAR-4 ovarian = test system: OVCAR-4 ovarian
K-562 leukemia = test system: K-562 leukemia
T-47D breast = test system: T-47D breast
TK-10 renal = test system: TK-10 renal
NCI/ADR-RES ovarian = test system: NCI/ADR-RES ovarian
MALME-3M melanoma = test system: MALME-3M melanoma
LOX IMVI melanoma = test system: LOX IMVI melanoma
DU-145 prostate = test system: DU-145 prostate
SF-295 CNS = test system: SF-295 CNS
HCT-15 colon = test system: HCT-15 colon
SK-MEL-28 melanoma = test system: SK-MEL-28 melanoma
SF-539 CNS = test system: SF-539 CNS
NCI-H23 lung = test system: NCI-H23 lung
MCF7 breast = test system: MCF7 breast
ACHN renal = test system: ACHN renal
786-0 renal = test system: 786-0 renal
RXF 393 renal = test system: RXF 393 renal
U251 CNS = test system: U251 CNS
IGROV1 ovarian = test system: IGROV1 ovarian
NCI-H460 lung = test system: NCI-H460 lung
HS 578T breast = test system: HS 578T breast
HOP-62 NSCLC = test system: HOP-62 NSCLC
COLO 205 colon = test system: COLO 205 colon
SW-620 colon = test system: SW-620 colon
SNB-75 CNS = test system: SNB-75 CNS
EKVX NSCLC = test system: EKVX NSCLC
SNB-19 CNS = test system: SNB-19 CNS
M14 melanoma = test system: M14 melanoma
KM12 colon = test system: KM12 colon
MOLT-4 leukemia = test system: MOLT-4 leukemia

SMILES: CCOc1cc(C(C)(C)C)ccc1C1=N[C@@](C)(c2ccc(Cl)cc2)[C@@](C)(c2ccc(Cl)cc2)N1C(=O)N1CCN(CCCS(C)(=O)=O)CC1
- GI50 (HL-60(TB) leukemia): 2.48 µM
- TGI (HL-60(TB) leukemia): 6.15 µM
- GI50 (CCRF-CEM leukemia): 4.1 µM
- TGI (CCRF-CEM leukemia): > 100 µM
- GI50 (UACC-257 melanoma): 2.02 µM
- TGI (UACC-257 melanoma): 15.8 µM
- GI50 (A498 renal): 1.64 µM
- TGI (A498 renal): 9.46 µM
- GI50 (SK-OV-3 ovarian): 14 µM
- TGI (SK-OV-3 ovarian): 32.9 µM
- GI50 (OVCAR-8 ovarian): 12 µM
- TGI (OVCAR-8 ovarian): > 100 µM
- GI50 (SK-MEL-2 melanoma): 9.14 µM
- TGI (SK-MEL-2 melanoma): 30 µM
- GI50 (OVCAR-5 ovarian): 8.41 µM
- TGI (OVCAR-5 ovarian): 20.8 µM
- GI50 (SR leukemia): 0.236 µM
- TGI (SR leukemia): > 100 µM
- GI50 (BT-549 breast): 2.76 µM
- TGI (BT-549 breast): 15.1 µM
- GI50 (HT29 colon): 2.96 µM
- TGI (HT29 colon): 9.28 µM
- GI50 (HOP-92 NSCLC): 2.31 µM
- TGI (HOP-92 NSCLC): 8.17 µM
- GI50 (HCC-2998 colon): 2.51 µM
- TGI (HCC-2998 colon): 6.95 µM
- GI50 (MDA-MB-231 breast): 3.41 µM
- TGI (MDA-MB-231 breast): 12.9 µM
- GI50 (NCI-H522 lung): 7.11 µM
- TGI (NCI-H522 lung): 39.2 µM
- GI50 (UO-31 renal): 0.401 µM
- TGI (UO-31 renal): 8.59 µM
- GI50 (SF-268 CNS): 9.42 µM
- TGI (SF-268 CNS): 37.6 µM
- GI50 (NCI-H226 lung): 0.462 µM
- TGI (NCI-H226 lung): 2.11 µM
- GI50 (SK-MEL-5 melanoma): 1.63 µM
- TGI (SK-MEL-5 melanoma): 3.21 µM
- GI50 (SN12C renal): 3.84 µM
- TGI (SN12C renal): 14.5 µM
- GI50 (RPMI-8226 leukemia): 3.13 µM
- TGI (RPMI-8226 leukemia): > 100 µM
- GI50 (UACC-62 melanoma): 0.708 µM
- TGI (UACC-62 melanoma): 6.41 µM
- GI50 (MDA-MB-435): 5.21 µM
- TGI (MDA-MB-435): 19.4 µM
- GI50 (CAKI-1 renal): 0.214 µM
- TGI (CAKI-1 renal): 5.15 µM
- GI50 (A549 NSCLC): 1.01 µM
- TGI (A549 NSCLC): 19.4 µM
- GI50 (OVCAR-3 ovarian): 11.5 µM
- TGI (OVCAR-3 ovarian): 25.7 µM
- GI50 (OVCAR-4 ovarian): 7.33 µM
- TGI (OVCAR-4 ovarian): 22.5 µM
- GI50 (K-562 leukemia): 3.71 µM
- TGI (K-562 leukemia): > 100 µM
- GI50 (T-47D breast): 9.21 µM
- TGI (T-47D breast): 61.4 µM
- GI50 (TK-10 renal): 10.3 µM
- TGI (TK-10 renal): 46.9 µM
- GI50 (NCI/ADR-RES ovarian): 4.97 µM
- TGI (NCI/ADR-RES ovarian): 18.9 µM
- GI50 (MALME-3M melanoma): 0.274 µM
- TGI (MALME-3M melanoma): 11.3 µM
- GI50 (LOX IMVI melanoma): 0.438 µM
- TGI (LOX IMVI melanoma): 11 µM
- GI50 (DU-145 prostate): 11 µM
- TGI (DU-145 prostate): 25.6 µM
- GI50 (SF-295 CNS): 4.13 µM
- TGI (SF-295 CNS): 15.2 µM
- GI50 (HCT-15 colon): 2.3 µM
- TGI (HCT-15 colon): 6.01 µM
- GI50 (SK-MEL-28 melanoma): 6.1 µM
- TGI (SK-MEL-28 melanoma): 19.3 µM
- GI50 (SF-539 CNS): 5.12 µM
- TGI (SF-539 CNS): 16.9 µM
- GI50 (NCI-H23 lung): 10.4 µM
- TGI (NCI-H23 lung): 24.9 µM
- GI50 (MCF7 breast): 0.456 µM
- TGI (MCF7 breast): 3.89 µM
- GI50 (ACHN renal): 0.505 µM
- TGI (ACHN renal): 11.3 µM
- GI50 (786-0 renal): 3.2 µM
- TGI (786-0 renal): 15.4 µM
- GI50 (RXF 393 renal): 3.39 µM
- TGI (RXF 393 renal): 14.4 µM
- GI50 (U251 CNS): 12.2 µM
- TGI (U251 CNS): 45.9 µM
- GI50 (IGROV1 ovarian): 1.4 µM
- TGI (IGROV1 ovarian): 10.9 µM
- GI50 (NCI-H460 lung): 0.895 µM
- TGI (NCI-H460 lung): 11.8 µM
- GI50 (HS 578T breast): 9.26 µM
- TGI (HS 578T breast): 35.2 µM
- GI50 (HOP-62 NSCLC): 11.4 µM
- TGI (HOP-62 NSCLC): 29.3 µM
- GI50 (COLO 205 colon): 9.53 µM
- TGI (COLO 205 colon): 32.6 µM
- GI50 (SW-620 colon): 11.2 µM
- TGI (SW-620 colon): 29.3 µM
- GI50 (SNB-75 CNS): 3.64 µM
- TGI (SNB-75 CNS): 17.3 µM
- GI50 (EKVX NSCLC): 4.3 µM
- TGI (EKVX NSCLC): 23.7 µM
- GI50 (SNB-19 CNS): 5.12 µM
- TGI (SNB-19 CNS): 17.8 µM
- GI50 (M14 melanoma): 3.6 µM
- TGI (M14 melanoma): > 100 µM
- GI50 (KM12 colon): 11.4 µM
- TGI (KM12 colon): 28 µM
- GI50 (MOLT-4 leukemia): 0.375 µM
- TGI (MOLT-4 leukemia): > 100 µM
